Test results taken from PubChem BioAssay AID2060627 (Molecular Pharmacology Branch, DTP, NCI, 2025).
Several values for one entry are separate records, joined by “and”; a condition that tells them apart may be missing. Identical values can stand only once.

Tested on: 156681-154-R-J1-PDC complex spheroid viability
Test: Anticancer human tumor 156681-154-R-J1-PDC patient-derived melanoma cell line growth inhibition [CLK]
Settings: for viability, T/C: stronger effect = lower value
Text: A high-throughput screen of multi-cell type tumor spheroids was designed to identify active combinations of […] and targeted small molecules. Complex spheroids include a stromal component modeled by human endothelial cells (HUVEC) and fibroblasts modeled by human mesenchymal stem cells (MSCs). The concentration ranges selected for each drug and investigational agent were based upon clinically achievable concentrations if the clinical Cmax of the agent was known.
Compounds. The drugs and investigational agents: cirtuvivint (SM08502; NSC835563), CC-671 (NSC850746), vemurafenib (NSC761431), tapotoclax (NSC804041), sotorasib (NSC818433), adagrasib (NSC831453), MRTX-1133 (NSC836407), BAY2416964 (NSC825713), copanlisib (NSC816437), inavolisib (NSC800729), abemaciclib (NSC768073), osimertinib (NSC779217), entinostat (NSC756642), eltanexor (KPT-8602, NSC794443), venetoclax (NSC766270), ceralasertib (NSC777638), bortezomib (NSC756655), olaparib (NSC753686), talazoparib (NSC767125), alisertib (NSC759677), peposertib (NSC802822), gemcitabine (NSC613327), 5-fluorouracil (NSC19893), SN-38 (NSC673596), oxaliplatin (NSC266046), paclitaxel (NSC125973), and doxorubicin (NSC123127), were obtained from the National Cancer Institute (NCI) Developmental Therapeutics Program Chemical Repository. The FDA-approved anticancer drug set is available from the Developmental Therapeutics Program at https://dtp.cancer.gov/organization/dscb/obtaining/available plates.htm. […] The stock solutions were prepared in dimethyl sulfoxide (DMSO, Sigma-Aldrich, St. Louis, MO, cat. D2650), except for the platinum complexes which were prepared in saline (Quality Biological, Gaithersburg, MD, cat. 114-055-101), at 800-fold the tested concentration and stored at -70 degrees C prior to their use. All drugs and investigational agents were tested over a range starting from a high concentration at or near the clinical Cmax and decreasing in half-log increments. If the clinical Cmax for an agent had not been determined, the highest concentration tested was 10 microM.
Cell Culture. All cells were maintained in an incubator at 37 degrees C and 5% CO2 with 95% humidity. The PDC lines were cultured according to standard operating procedures established by the NCI PDMR. Briefly, all PDCs were thawed and cultured in Matrigel-coated flasks prepared with a working solution of 1X Ham's F-12 nutrient mix, without supplementation (Invitrogen, Waltham, MA, cat. 11765054), 100 U/mL penicillin-streptomycin (Invitrogen, cat. 15140122), and 2.5% Matrigel (Corning Inc., Corning, NY, cat. 354248) for the first three passages. The 947758-054-R-J2-PDC line was cultured in 6B/Colon 1A media, which includes advanced DMEM/F-12 (Thermo Fisher Scientific, cat. 12634028), 10 mM HEPES (Thermo Fisher Scientific, cat. 15630080), 1X GlutaMAX supplement (Thermo Fisher Scientific, cat. 35050061), 0.1 mg/mL primocin (InvivoGen, cat. ant-pm-2), 10% defined fetal bovine serum, heat inactivated (HyClone Laboratories Inc., cat. SH30070.03HI), 1.25 mM N-Acetyl-L-cysteine (Sigma-Aldrich, cat. A9165), 10 mM nicotinamide (Sigma-Aldrich, cat. N0636), 1X B-27 supplement (Thermo Fisher Scientific, cat. 17504044), 1X N-2 supplement (Thermo Fisher Scientific, cat. 17502048), and 10 microM Y-27632 dihydrochloride (Tocris Bioscience, cat. 1254). The 876862-298-R-J1-PDC was cultured in 6E media, which includes all 6B/Colon 1A media components plus 50% L-WRN conditioned media (ATCC, cat. CRL-3276), 50 ng/mL recombinant human EGF recombinant protein (hEGF; Thermo Fisher Scientific, cat. PHG0311), 10 ng/mL recombinant human fibroblast growth factor 10 (hGFG-10; PeproTech, cat. 100-26), 1 ng/mL recombinant human fibroblast growth factor 2 (hFGF-2; PeproTech, cat. 100-18B), and 1 µM prostaglandin E2 (PGE2; Tocris, cat. 2296). The 227483-062-R1-J1-PDC line was cultured in Panc media, containing all 6E components except hFGF-2, with the addition of 500 nM SB-431542 (Selleckchem, cat. S1067) and 10 nM gastrin (Tocris, cat. 3006). […]

[1] = curve of first compound, second compound 0.0316 µM
[2] = curve of first compound, second compound 0.1 µM
[3] = curve of first compound, second compound 0.316 µM
[4] = curve of first compound, second compound 1 µM
[5] = curve of first compound, second compound 3.16 µM
[6] = curve of first compound, second compound 10 µM
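Note: spheroids exposed to the agents for seven days.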
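Throughout, for viability, T/C: 100% = DMSO vehicle control viability.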

SMILES: COc1ccc([C@@H](O)c2cc(-c3ncnc4cc(N5CCOCC5)ccc34)c(F)cc2Cl)nn1 + CN1CCN(c2cc(C(=O)Nc3cc4cc(-c5cnn(C)c5)ccc4cn3)ccn2)CC1
- IC50 [1]: 2.4 µM
- IC50 [2]: 1.45 µM
- IC50 [3]: < 0.0316 µM
- IC50 [4]: < 0.0316 µM
- IC50 [5]: < 0.0316 µM
- IC50 [6]: < 0.0316 µM
- viability, T/C (second compound 0.0316 µM, first compound 0.0316 µM): 109%
- viability, T/C (second compound 0.0316 µM, first compound 0.1 µM): 88.3%
- viability, T/C (second compound 0.0316 µM, first compound 0.316 µM): 91.3%
- viability, T/C (second compound 0.0316 µM, first compound 1 µM): 63.6%
- viability, T/C (second compound 0.0316 µM, first compound 3.16 µM): 45.3%
- viability, T/C (second compound 0.0316 µM, first compound 10 µM): 19.2%
- viability, T/C (second compound 0.1 µM, first compound 0.0316 µM): 97.5%
- viability, T/C (second compound 0.1 µM, first compound 0.1 µM): 84%
- viability, T/C (second compound 0.1 µM, first compound 0.316 µM): 73.5%
- viability, T/C (second compound 0.1 µM, first compound 1 µM): 58.2%
- viability, T/C (second compound 0.1 µM, first compound 3.16 µM): 35%
- viability, T/C (second compound 0.1 µM, first compound 10 µM): 16.8%
- viability, T/C (second compound 0.316 µM, first compound 0.0316 µM): 15.7%
- viability, T/C (second compound 0.316 µM, first compound 0.1 µM): 16.9%
- viability, T/C (second compound 0.316 µM, first compound 0.316 µM): 14.8%
- viability, T/C (second compound 0.316 µM, first compound 1 µM): 13%
- viability, T/C (second compound 0.316 µM, first compound 3.16 µM): 8.38%
- viability, T/C (second compound 0.316 µM, first compound 10 µM): 2.77%
- viability, T/C (second compound 1 µM, first compound 0.0316 µM): 0.13%
- viability, T/C (second compound 1 µM, first compound 0.1 µM): 2%
- viability, T/C (second compound 1 µM, first compound 0.316 µM): 1.91%
- viability, T/C (second compound 1 µM, first compound 1 µM): 0.33%
- viability, T/C (second compound 1 µM, first compound 3.16 µM): 1.72%
- viability, T/C (second compound 1 µM, first compound 10 µM): 2.7%
- viability, T/C (second compound 3.16 µM, first compound 0.0316 µM): 0.06%
- viability, T/C (second compound 3.16 µM, first compound 0.1 µM): 1.44%
- viability, T/C (second compound 3.16 µM, first compound 0.316 µM): 0.99%
- viability, T/C (second compound 3.16 µM, first compound 1 µM): 0.08%
- viability, T/C (second compound 3.16 µM, first compound 3.16 µM): 3.19%
- viability, T/C (second compound 3.16 µM, first compound 10 µM): 0.56%
- viability, T/C (second compound 10 µM, first compound 0.0316 µM): 0.06%
- viability, T/C (second compound 10 µM, first compound 0.1 µM): 2.47%
- viability, T/C (second compound 10 µM, first compound 0.316 µM): 1.95%
- viability, T/C (second compound 10 µM, first compound 1 µM): 0.88%
- viability, T/C (second compound 10 µM, first compound 3.16 µM): 2.45%
- viability, T/C (second compound 10 µM, first compound 10 µM): 0.51%

SMILES: NC(=O)C(=Cn1cnc(-c2cc(C(F)(F)F)cc(C(F)(F)F)c2)n1)c1cncnc1 + CNC(=O)c1ccc(Nc2nc(OC3CCCC3)c3c(-c4ccc5nc(C)oc5c4)c[nH]c3n2)c(OC)c1
- IC50 [1]: 0.0619 µM
- IC50 [2]: < 0.00949 µM
- IC50 [3]: 0.0332 µM
- IC50 [4]: < 0.00949 µM
- IC50 [5]: < 0.00949 µM
- IC50 [6]: < 0.00949 µM
- viability, T/C (second compound 0.0316 µM, first compound 0.00949 µM): 64.7%
- viability, T/C (second compound 0.0316 µM, first compound 0.03 µM): 81%
- viability, T/C (second compound 0.0316 µM, first compound 0.0949 µM): 36.6%
- viability, T/C (second compound 0.0316 µM, first compound 0.3 µM): 14%
- viability, T/C (second compound 0.0316 µM, first compound 0.949 µM): 6.14%
- viability, T/C (second compound 0.0316 µM, first compound 3 µM): 3.87%
- viability, T/C (second compound 0.1 µM, first compound 0.00949 µM): 37.9%
- viability, T/C (second compound 0.1 µM, first compound 0.03 µM): 52.5%
- viability, T/C (second compound 0.1 µM, first compound 0.0949 µM): 33%
- viability, T/C (second compound 0.1 µM, first compound 0.3 µM): 18.4%
- viability, T/C (second compound 0.1 µM, first compound 0.949 µM): 6.15%
- viability, T/C (second compound 0.1 µM, first compound 3 µM): 4.5%
- viability, T/C (second compound 0.316 µM, first compound 0.00949 µM): 52.4%
- viability, T/C (second compound 0.316 µM, first compound 0.03 µM): 53.7%
- viability, T/C (second compound 0.316 µM, first compound 0.0949 µM): 23.7%
- viability, T/C (second compound 0.316 µM, first compound 0.3 µM): 7.53%
- viability, T/C (second compound 0.316 µM, first compound 0.949 µM): 3.12%
- viability, T/C (second compound 0.316 µM, first compound 3 µM): 3.35%
- viability, T/C (second compound 1 µM, first compound 0.00949 µM): 40.3%
- viability, T/C (second compound 1 µM, first compound 0.03 µM): 45%
- viability, T/C (second compound 1 µM, first compound 0.0949 µM): 7.8%
- viability, T/C (second compound 1 µM, first compound 0.3 µM): 1.43%
- viability, T/C (second compound 1 µM, first compound 0.949 µM): 1.06%
- viability, T/C (second compound 1 µM, first compound 3 µM): 0.77%
- viability, T/C (second compound 3.16 µM, first compound 0.00949 µM): 37.5%
- viability, T/C (second compound 3.16 µM, first compound 0.03 µM): 22.1%
- viability, T/C (second compound 3.16 µM, first compound 0.0949 µM): 4.21%
- viability, T/C (second compound 3.16 µM, first compound 0.3 µM): 1.37%
- viability, T/C (second compound 3.16 µM, first compound 0.949 µM): 1.03%
- viability, T/C (second compound 3.16 µM, first compound 3 µM): 0.18%
- viability, T/C (second compound 10 µM, first compound 0.00949 µM): 28.5%
- viability, T/C (second compound 10 µM, first compound 0.03 µM): 24.2%
- viability, T/C (second compound 10 µM, first compound 0.0949 µM): 3.92%
- viability, T/C (second compound 10 µM, first compound 0.3 µM): 1%
- viability, T/C (second compound 10 µM, first compound 0.949 µM): 1.5%
- viability, T/C (second compound 10 µM, first compound 3 µM): 0.26%

SMILES: CCCS(=O)(=O)Nc1ccc(F)c(C(=O)c2c[nH]c3ncc(-c4ccc(Cl)cc4)cc23)c1F
- viability, T/C (compound 0.0316 µM): 90.6% and 79.6%
- viability, T/C (compound 0.1 µM): 77.4% and 59.3%
- viability, T/C (compound 0.316 µM): 99.6% and 96.6%
- viability, T/C (compound 1 µM): 92.4% and 73.8%
- viability, T/C (compound 3.16 µM): 85.8% and 83.2%
- viability, T/C (compound 10 µM): 11.3% and 6.41%
- IC50 (curve of compound): 5.5 µM and 4.99 µM
